Measurements taken from ChEMBL document CHEMBL1201862, “PubChem BioAssay data set” (2004).
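Exposure lasted 48 hours, with cells grown in 96-well plates and compounds tested at five concentrations. GI50 is the concentration that inhibits growth by half.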 Active and inactive are the calls of the source. Rule as the data show it: active = GI50 up to about 1.1 µM and inactive = higher.

How the values were obtained:
Assay in all cases: DTP human tumour cell line panel, 48 h
RPMI-8226 = tested on: RPMI-8226
A549 = tested on: A549
MDA-N = tested on: MDA-N
SF-268 = tested on: SF-268
K562 = tested on: K562
Malme-3M = tested on: Malme-3M
Hs-578T = tested on: Hs-578T
PC-3 = tested on: PC-3
SK-MEL-28 = tested on: SK-MEL-28
SN12C = tested on: SN12C
HL-60 = tested on: HL-60
MOLT-4 = tested on: MOLT-4
TK-10 = tested on: TK-10
MDA-MB-231 = tested on: MDA-MB-231
OVCAR-5 = tested on: OVCAR-5
OVCAR-8 = tested on: OVCAR-8
ACHN = tested on: ACHN
OVCAR-4 = tested on: OVCAR-4
SK-MEL-2 = tested on: SK-MEL-2
NCI-H522 = tested on: NCI-H522

Measured: GI50

CC(=O)C(=[N+]=[N-])C(=O)OC(C)(C)C#N
inactive: RPMI-8226 > 10 µM | A549 > 10 µM | MDA-N > 10 µM | SF-268 > 10 µM | K562 > 10 µM | Malme-3M > 10 µM | Hs-578T > 10 µM | PC-3 > 10 µM | SK-MEL-28 > 10 µM | SN12C > 10 µM | HL-60 > 10 µM | MOLT-4 > 10 µM | TK-10 > 10 µM | MDA-MB-231 > 10 µM | OVCAR-5 > 10 µM | OVCAR-8 > 10 µM | ACHN > 10 µM | OVCAR-4 > 10 µM | SK-MEL-2 > 10 µM

[O-][N+]1=C(c2ccccc2)/C(=C2/C(c3ccccc3)=[N+]([O-])c3ccccc32)Cc2ccccc21
inactive: RPMI-8226 21.1 µM | A549 13.8 µM | MDA-N 17.1 µM | K562 19.1 µM | Malme-3M 21.3 µM | PC-3 12.9 µM | SK-MEL-28 22.3 µM | SN12C 16.6 µM | HL-60 40.1 µM | MOLT-4 22.8 µM | TK-10 18.2 µM | MDA-MB-231 13.6 µM | OVCAR-5 33.6 µM | OVCAR-8 16.6 µM | ACHN 20.9 µM | OVCAR-4 13.8 µM | NCI-H522 15.3 µM | SK-MEL-2 16.1 µM

C/C=N\n1c(C)n[nH]c1=O
inactive: RPMI-8226 > 100 µM | A549 > 100 µM | MDA-N > 100 µM | SF-268 > 100 µM | K562 > 100 µM | Malme-3M > 100 µM | Hs-578T > 100 µM | PC-3 > 100 µM | SK-MEL-28 > 100 µM | SN12C > 100 µM | HL-60 > 100 µM | MOLT-4 > 100 µM | TK-10 > 100 µM | OVCAR-5 > 100 µM | OVCAR-8 > 100 µM | ACHN > 100 µM | OVCAR-4 > 100 µM | NCI-H522 > 100 µM | SK-MEL-2 > 100 µM

CC1(C(=O)O)C[C@](C)(C(=O)OCc2ccccc2)C[C@](C)(C(=O)OCc2ccccc2)C1 (stereo partly drawn)
inactive: RPMI-8226 26.2 µM | A549 35.6 µM | MDA-N 36 µM | SF-268 47.9 µM | K562 37 µM | Malme-3M 63.2 µM | Hs-578T 30.3 µM | PC-3 26.2 µM | SK-MEL-28 50.2 µM | SN12C 30.2 µM | HL-60 22.4 µM | MOLT-4 25.4 µM | TK-10 43.3 µM | OVCAR-5 34.3 µM | OVCAR-8 34.5 µM | ACHN 22.9 µM | OVCAR-4 39.8 µM | NCI-H522 21.6 µM | SK-MEL-2 17.5 µM

N#Cc1c(-c2ccccc2)c(/C=N/c2cccc(C(F)(F)F)c2)c(=O)n2c1[nH]c1ccccc12
inactive: RPMI-8226 6.35 µM | A549 23.6 µM | MDA-N 28 µM | SF-268 35.6 µM | Malme-3M 42.3 µM | PC-3 31 µM | SK-MEL-28 59 µM | SN12C 17.4 µM | TK-10 32.9 µM | MDA-MB-231 42.3 µM | OVCAR-5 10.8 µM | OVCAR-8 24.8 µM | ACHN 30.1 µM | OVCAR-4 51.1 µM | NCI-H522 15.1 µM | SK-MEL-2 22.1 µM

C=CCC(SC)C1=C(C)C(=O)c2ccccc21 (stereo not drawn)
inactive: RPMI-8226 > 10 µM | A549 > 10 µM | MDA-N > 10 µM | SF-268 > 10 µM | K562 > 10 µM | Malme-3M > 10 µM | PC-3 > 10 µM | SK-MEL-28 > 10 µM | SN12C > 10 µM | MOLT-4 > 10 µM | TK-10 > 10 µM | MDA-MB-231 > 10 µM | OVCAR-5 > 10 µM | OVCAR-8 > 10 µM | ACHN > 10 µM | SK-MEL-2 > 10 µM

Nc1ncnc2c1nc(O)n2-c1ccccc1
inactive: RPMI-8226 > 100 µM | A549 > 100 µM | MDA-N > 100 µM | SF-268 > 100 µM | K562 > 100 µM | Malme-3M > 100 µM | Hs-578T > 100 µM | PC-3 > 100 µM | SK-MEL-28 > 100 µM | SN12C > 100 µM | HL-60 > 100 µM | MOLT-4 > 100 µM | TK-10 > 100 µM | OVCAR-5 > 100 µM | OVCAR-8 > 100 µM | ACHN > 100 µM | OVCAR-4 > 100 µM | SK-MEL-2 > 100 µM

CC1(C)CC(=O)C2=C(C1)NC1=C(C2)C(=O)CC(C)(C)C1
inactive: RPMI-8226 > 100 µM | A549 > 100 µM | MDA-N > 100 µM | SF-268 > 100 µM | K562 > 100 µM | Malme-3M > 100 µM | Hs-578T > 100 µM | PC-3 > 100 µM | SK-MEL-28 > 100 µM | SN12C > 100 µM | HL-60 > 100 µM | MOLT-4 > 100 µM | TK-10 > 100 µM | MDA-MB-231 > 100 µM | OVCAR-5 > 100 µM | OVCAR-8 > 100 µM | ACHN > 100 µM | OVCAR-4 > 100 µM

C(=N\c1ccc(-c2nc3ccccc3s2)cc1)/c1ccc[nH]1
inactive: RPMI-8226 15.5 µM | A549 25.6 µM | MDA-N 18 µM | SF-268 15.5 µM | K562 20.4 µM | Malme-3M 18.2 µM | Hs-578T 19.7 µM | PC-3 14.9 µM | SK-MEL-28 20.1 µM | SN12C 19.5 µM | HL-60 16.5 µM | MOLT-4 11.7 µM | TK-10 31.8 µM | OVCAR-5 22 µM | OVCAR-8 27.6 µM | ACHN 20.7 µM | OVCAR-4 23.8 µM | NCI-H522 14.1 µM | SK-MEL-2 17.3 µM

COc1cccc(C23CCCC(C2)N(C)CC3OC(=O)c2ccccc2)c1OC (stereo not drawn)
inactive: RPMI-8226 18.6 µM | A549 41 µM | MDA-N 16 µM | SF-268 32 µM | K562 18.8 µM | Malme-3M 16.6 µM | Hs-578T 24.4 µM | PC-3 23.8 µM | SK-MEL-28 28 µM | HL-60 10.2 µM | MOLT-4 18.4 µM | OVCAR-5 26.4 µM | OVCAR-8 16.4 µM | ACHN 32.7 µM | OVCAR-4 24 µM | NCI-H522 22.6 µM | SK-MEL-2 31.8 µM

O=C(OCC(Cl)(Cl)Cl)N1CC[C@@H](C2CCCCC2)C1
inactive: A549 27.3 µM | MDA-N 31 µM | SF-268 17.3 µM | K562 21.5 µM | PC-3 21.2 µM | SN12C 29.3 µM | MOLT-4 33.8 µM | TK-10 30.1 µM | MDA-MB-231 43.3 µM | OVCAR-5 23.7 µM | ACHN 22.8 µM | OVCAR-4 18.6 µM | NCI-H522 21.7 µM | SK-MEL-2 18.3 µM
